Legend:
[1] = In vitro metabolic stability in CES1−/− mouse liver homogenate; type: in vitro ADME; details: C57BL/6, mouse
[2] = In vitro metabolic stability in CES1−/− mouse brain homogenate; type: in vitro ADME; details: for remaining at 1 h, 10 μM: C57BL/6, mouse; for Stability in mouse (% remaining at 1 h) Brain: 10 μM, 37 °C, mean ± std error, n = 3
Single time-point = type: in vivo, mouse; details: CES1−/− mice, PO 10 mg/kg DPTIP equivalent, 2 h post dose
[3] = type: in vivo, mouse; details: high resolution mass spectrometry, after oral dosing
nSMase2 = biological target: T1, nSMase2 (Mus musculus, UniProt Q9JJY3); test: nSMase2 activity in striata of IL-1β-injected mice; type: in vivo; details: PO 3 and 10 mg/kg DPTIP equivalent, dose dependent, 4 h post IL-1β
T1 sequence (Q9JJY3 1-655): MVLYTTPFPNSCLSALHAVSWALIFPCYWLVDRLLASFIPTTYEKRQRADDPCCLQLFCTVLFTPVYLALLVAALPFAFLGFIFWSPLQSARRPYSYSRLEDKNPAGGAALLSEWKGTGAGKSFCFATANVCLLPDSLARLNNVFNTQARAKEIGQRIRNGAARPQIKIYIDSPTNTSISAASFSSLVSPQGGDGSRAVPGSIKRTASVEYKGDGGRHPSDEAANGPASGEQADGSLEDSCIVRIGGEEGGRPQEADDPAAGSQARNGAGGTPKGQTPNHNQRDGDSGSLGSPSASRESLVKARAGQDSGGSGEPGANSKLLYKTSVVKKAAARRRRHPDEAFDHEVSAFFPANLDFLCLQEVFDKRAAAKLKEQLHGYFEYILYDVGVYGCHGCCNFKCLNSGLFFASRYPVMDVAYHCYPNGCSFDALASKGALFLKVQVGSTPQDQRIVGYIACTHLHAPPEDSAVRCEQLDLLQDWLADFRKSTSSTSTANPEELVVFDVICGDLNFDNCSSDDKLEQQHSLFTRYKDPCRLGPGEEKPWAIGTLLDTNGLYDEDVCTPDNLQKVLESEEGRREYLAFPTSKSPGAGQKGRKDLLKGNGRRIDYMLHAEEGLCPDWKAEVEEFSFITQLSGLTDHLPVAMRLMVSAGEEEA

[4] = Time-dependent oral PK in CES1−/− mice; type: in vivo, mouse; details: PO 10 mg/kg DPTIP equivalent
[5] = In vitro metabolic stability in CES1−/− mouse plasma; type: in vitro ADME; details: C57BL/6, mouse
[6] = rats, dose dependent; cited from earlier work

Structure (SMILES): COc1cc(-c2nc(-c3ccccc3)c(-c3cccs3)[nH]2)cc(OC)c1OCOP(=O)(O)OCOC(=O)OC(C)C [Compound P16, ((((2,6-Dimethoxy-4-(4-phenyl-5-(thiophen-2-yl)-1H-imidazol-2-yl)phenoxy)methoxy)(hydroxy)phosphoryl)oxy)methyl isopropyl carbonate]
- remaining at 1 h, 10 μM ([1]; CES1−/− mouse liver homogenate): < 25%
- remaining at 1 h, 10 μM ([2]; CES1−/− mouse brain homogenate): > 75%

Structure (SMILES): COc1cc(-c2nc(-c3ccccc3)c(-c3cccs3)[nH]2)cc(OC)c1OC(=O)C1=CN(C)C=CC1 [Compound P17, 2,6-Dimethoxy-4-(4-phenyl-5-(thiophen-2-yl)-1H-imidazol-2-yl)phenyl 1-methyl-1,4-dihydropyridine-3-carboxylate]
- Brain level of intact prodrug (Single time-point): 3.0 nM
- Plasma level of intact prodrug (Single time-point): 3.9 nM
- Putative oxidized pyridinium metabolite in brain and plasma [3]: negligible quantities

Structure (SMILES): CCC1CC(N2CCCCC2)CC(CC)N1C(=O)Oc1c(OC)cc(-c2nc(-c3ccccc3)c(-c3cccs3)[nH]2)cc1OC (centres unmarked) [Compound P18, 2,6-Dimethoxy-4-(5-phenyl-4-(thiophen-2-yl)-1H-imidazol-2-yl)phenyl 2’,6’-diethyl-[1,4’-bipiperidine]-1’-carboxylate]
- Effect on heightened nSMase2 activity in striata caused by IL-1β (nSMase2): normalized
- remaining at 1 h, 10 μM ([1]; tissue homogenate): > 75%
- remaining at 1 h, 10 μM ([2]; brain homogenate): > 75%
- AUC0-t of intact prodrug in brain [4]: 179 pmol·h/g
- remaining at 1 h, 10 μM ([5]; plasma): > 75%

Structure (SMILES): COc1cc(-c2nc(-c3ccccc3)c(-c3cccs3)[nH]2)cc(OC)c1OC(=O)N1C2CCCC1CC2 [Compound P12, 2,6-Dimethoxy-4-(5-phenyl-4-(thiophen-2-yl)-1H-imidazol-2-yl)phenyl 8-azabicyclo[3.2.1]octane-8-carboxylate]
- remaining at 1 h, 10 μM ([1]; tissue homogenate): > 75%

Structure (SMILES): COc1cc(-c2nc(-c3ccccc3)c(-c3cccs3)[nH]2)cc(OC)c1OC(=O)N1CCC(N2CCCCC2)CC1 [Compound P1, 2,6-Dimethoxy-4-(4-phenyl-5-(thiophen-2-yl)-1H-imidazol-2-yl)phenyl [1,4’-bipiperidine]-1’-carboxylate]
- remaining at 1 h, 10 μM ([1]; tissue homogenate): > 75%
- remaining at 1 h, 10 μM ([2]; brain homogenate): ≥ 50%
- AUC0-t of intact prodrug in brain [4]: 494.6 pmol·h/g
- remaining at 1 h, 10 μM ([5]; plasma): > 75%

Structure (SMILES): COc1cc(-c2nc(-c3ccccc3)c(-c3cccs3)[nH]2)cc(OC)c1OC(C)=O [Compound P3, 2,6-Dimethoxy-4-(4-phenyl-5-(thiophen-2-yl)-1H-imidazol-2-yl)phenyl acetate]
- remaining at 1 h, 10 μM ([1]; CES1−/− mouse liver homogenate): < 25%
- Stability in mouse (% remaining at 1 h) Brain ([2]; CES1−/− mouse brain homogenate): completely metabolized
- remaining at 1 h, 10 μM ([5]; CES1−/− mouse plasma): < 30%

Structure (SMILES): COc1cc(-c2nc(-c3ccccc3)c(-c3cccs3)[nH]2)cc(OC)c1OC(=O)N(C)C [Compound P5, 2,6-Dimethoxy-4-(4-phenyl-5-(thiophen-2-yl)-1H-imidazol-2-yl)phenyl dimethylcarbamate]
- remaining at 1 h, 10 μM ([1]; tissue homogenate): > 75%
- remaining at 1 h, 10 μM ([2]; brain homogenate): > 75%
- remaining at 1 h, 10 μM ([5]; plasma): > 75%

Structure (SMILES): CCCCCC(=O)Oc1c(OC)cc(-c2nc(-c3ccccc3)c(-c3cccs3)[nH]2)cc1OC [Compound P2, 2,6-Dimethoxy-4-(4-phenyl-5-(thiophen-2-yl)-1H-imidazol-2-yl)phenyl hexanoate]
- remaining at 1 h, 10 μM ([1]; CES1−/− mouse liver homogenate): < 25%
- remaining at 1 h, 10 μM ([2]; CES1−/− mouse brain homogenate): ≥ 50%
- remaining at 1 h, 10 μM ([5]; CES1−/− mouse plasma): < 30%

Structure (SMILES): COc1cc(-c2nc(-c3ccccc3)c(-c3cccs3)[nH]2)cc(OC)c1OC(=O)OC(OC(=O)C(C)(C)C)c1ccccc1 (centres unmarked) [Compound P6, (((2,6-Dimethoxy-4-(4-phenyl-5-(thiophen-2-yl)-1H-imidazol-2-yl)phenoxy)carbonyl)oxy)(phenyl)methyl pivalate]
- remaining at 1 h, 10 μM ([1]; CES1−/− mouse liver homogenate): > 75%
- remaining at 1 h, 10 μM ([2]; CES1−/− mouse brain homogenate): ≥ 50%
- remaining at 1 h, 10 μM ([5]; CES1−/− mouse plasma): > 75%

Structure (SMILES): COc1cc(-c2nc(-c3ccccc3)c(-c3cccs3)[nH]2)cc(OC)c1OC(=O)C(C)(C)C [Compound P4, 2,6-Dimethoxy-4-(4-phenyl-5-(thiophen-2-yl)-1H-imidazol-2-yl)phenyl pivalate]
- remaining at 1 h, 10 μM ([1]; CES1−/− mouse liver homogenate): < 25%
- remaining at 1 h, 10 μM ([2]; CES1−/− mouse brain homogenate): > 75%
- remaining at 1 h, 10 μM ([5]; CES1−/− mouse plasma): < 30%

Structure (SMILES): CC(C)c1cccc(C(C)C)c1OCOP(=O)(O)O [fospropofol]
- Improvement of oral bioavailability [6]: 20–70%

Structure (SMILES): COc1cc(-c2nc(-c3ccccc3)c(-c3cccs3)[nH]2)cc(OC)c1OCOP(=O)(O)O [Compound P15, (2,6-Dimethoxy-4-(4-phenyl-5-(thiophen-2-yl)-1H-imidazol-2-yl)phenoxy) methyl dihydrogen phosphate]
- remaining at 1 h, 10 μM ([1]; CES1−/− mouse liver homogenate): < 25%
- Stability in mouse (% remaining at 1 h) Brain ([2]; CES1−/− mouse brain homogenate): completely metabolized

Structure (SMILES): CCC1CCCC(CC)N1C(=O)Oc1c(OC)cc(-c2nc(-c3ccccc3)c(-c3cccs3)[nH]2)cc1OC (centres unmarked) [Compound P10, 2,6-Dimethoxy-4-(5-phenyl-4-(thiophen-2-yl)-1H-imidazol-2-yl)phenyl 2,6-diethylpiperidine-1-carboxylate]
- remaining at 1 h, 10 μM ([1]; CES1−/− mouse liver homogenate): > 50%

Structure (SMILES): COc1cc(-c2nc(-c3ccccc3)c(-c3cccs3)[nH]2)cc(OC)c1OC(=O)N1C2CCC1CC(N1CCCCC1)C2 (centres unmarked) [Compound P13, 2,6-Dimethoxy-4-(5-phenyl-4-(thiophen-2-yl)-1H-imidazol-2-yl)phenyl 3-(piperidin-1-yl)-8-azabicyclo[3.2.1]octane-8-carboxylate]
- remaining at 1 h, 10 μM ([1]; tissue homogenate): > 75%

Source: article PMC9980655 (Journal of medicinal chemistry, 2022)
